Literature values, collected in patent publication US10645923B2, “Insect bait” (priority 2010, dated 2020).

What was measured:
V. Germanica = conditions: hydramethylnon 2%, after 72 hours
Vespula spp. = conditions: treated areas
wasps [1] = conditions: beef baited with fipronil, North West Patagonia (Argentina)
wasps [2] = conditions: fipronil versus sulfluramid; faster acting

| SMILES | reduction of wasp populations (V. Germanica) [%] | reduction of colony activity (Vespula spp.) [%] | reduction of wasp densities (wasps [1]) | concentration factor lower than sulfluramid at equal toxicity (wasps [2]) [times] |
| --- | --- | --- | --- | --- |
| CC1(C)CNC(=NN=C(/C=C/c2ccc(C(F)(F)F)cc2)/C=C/c2ccc(C(F)(F)F)cc2)NC1 [hydramethylnon] | 54 | – | – | – |
| N#Cc1nn(-c2c(Cl)cc(C(F)(F)F)cc2Cl)c(N)c1[S+]([O-])C(F)(F)F (stereo not shown) [Fipronil] | – | 99.7 | 80-100% | 1000 |
